# Literature values, collected in article PMC10088252.
# Read-outs that look alike come from different tables or passages of the source.
# B1: telisotuzumab vedotin (conjugate, chains of the INN, looked up)
# VH: QVQLVQSGAEVKKPGASVKVSCKASGYIFTAYTMHWVRQAPGQGLEWMGWIKPNNGLANYAQKFQGRVTMTRDTSISTAYMELSRLRSDDTAVYYCARSEITTEFDYWGQGTLVTVSS
# VL: DIVMTQSPDSLAVSLGERATINCKSSESVDSYANSFLHWYQQKPGQPPKLLIYRASTRESGVPDRFSGSGSGTDFTLTISSLQAEDVAVYYCQQSKEDPLTFGGGTKVEIK
# modifications: vedotin (MMAE) payload
# Legend:
# [1] = tested on: NSCLC harboring MET exon 14 skipping mutation; set-up: method as in PMID 34166627; settings: cited from earlier work
# [2] = tested on: MET exon 14-mutated NSCLC; set-up: method as in PMID 35720834; settings: real-world; cited from earlier work
# [3] = tested on: MET-positive solid tumors; set-up: method as in PMID 31778267; settings: all patients (76); cited from earlier work
# [4] = tested on: MET exon 14-mutated or MET-amplified NSCLC; set-up: method as in PMID 32877583; settings: cited from earlier work
# [5] = tested on: MET- or ROS1-positive NSCLC; set-up: method as in PMID 31584608; settings: cited from earlier work
# [6] = tested on: advanced solid tumors with c-MET H-score of ≥ 150; set-up: method as in PMID 30285518; settings: 16 patients with NSCLC; cited from earlier work
# [7] = of 13 patients with brain metastases at baseline
molecule,measurement,setting,value
C[C@@H](c1ccc2nccn2c1)n1nnc2ncc(-c3cnn(C)c3)nc21 [savolitinib],DCR,[1]; 15 MET exon 14-mutated NSCLC patients with brain metastases,93.3%
same,grade ≥ 3 TRAE increased ALT,[1],10%
same,grade ≥ 3 TRAE increased AST,[1],13%
same,grade ≥ 3 TRAE peripheral oedema,[1],9%
same,incidence of grade ≥ 3 TRAEs,[1],46%
same,ORR,"[1]; patients harboring MET exon 14 skipping mutation, FAS",42.9%
CNC(=O)c1ccc(-c2cnc3ncc(Cc4ccc5ncccc5c4)n3n2)cc1F [capmatinib],ORR,[2],58%
same,median PFS,[2],9.5 months
same,DCR,[3],26%
same,ORR,"[4]; MET amplification, gene copy number < 10",7–12%
same,ORR,"[4]; MET amplification, gene copy number ≥ 10, previously treated",29%
same,ORR,"[4]; MET amplification, gene copy number ≥ 10, treatment-naïve",40%
same,TEAE nausea,[4],45%
same,TEAE peripheral edema,[4],51%
same,patients who discontinued treatment due to TRAEs,[4],11%
same,patients achieving intracranial response,[4]; [7],Seven
same,patients with intracranial CR,[4]; [7],four
same,ORR,[4]; patients harboring MET exon 14 skipping mutation,41%
same,ORR,[4]; previously treated MET exon 14-mutated NSCLC,41%
same,ORR,[4]; treatment-naïve MET exon 14-mutated NSCLC,68%
C[C@@H](Oc1cc(-c2cnn(C3CCNCC3)c2)cnc1N)c1c(Cl)ccc(F)c1Cl [crizotinib],ORR,[5]; MET copy number ≥ 6,16%
same,ORR,[5]; MET mutation,10.7%
B1,DCR,[6],56%
